Measurements reported in US5843999A, “2-phenylazulene derivatives and a manufacturing method of these compounds” (Kotobuki Seiyaku Co., Ltd., priority 1996, dated 1998).
pIC50: −log10 of the molar value.

Legend:
[1] = target: COX-1 (Homo sapiens, UniProt P23219); assay: Inhibitory activity on COX-1 (PGE2 production from arachidonic acid, PGE2 ELISA; Needleman method); type: biochemical; conditions: 1 mM arachidonic acid, 1 μM hematin, pH 8.0, 37° C., 10 min
Method: (§1) Pharmacological experiment are as follows. Inhibitory activity of compounds on COX-1 and COX-2 were assayed according to the method of Needleman (J. Biol. Chem., 254, 9772, 1979). One unit of COX-1 or COX-2 enzyme, suspended with Tris-HCl buffer (pH 8.0, 500 μl) containing 1 μM hematin as co-factor, was incubated with compound and 1 mM arachidonic acid at 37° C. for 10 min. The reaction was stopped with 50 mM indomethacin (50 μl), and amounts of PGE2 in the reaction mixture was assayed using PGE2 ELISA system.

[2] = target: T1, COX-2 (Homo sapiens, UniProt P35354); assay: Inhibitory activity on COX-2 (PGE2 production from arachidonic acid, PGE2 ELISA; Needleman method); type: biochemical; conditions: 1 mM arachidonic acid, 1 μM hematin, pH 8.0, 37° C., 10 min
T1 sequence (P35354 18-604): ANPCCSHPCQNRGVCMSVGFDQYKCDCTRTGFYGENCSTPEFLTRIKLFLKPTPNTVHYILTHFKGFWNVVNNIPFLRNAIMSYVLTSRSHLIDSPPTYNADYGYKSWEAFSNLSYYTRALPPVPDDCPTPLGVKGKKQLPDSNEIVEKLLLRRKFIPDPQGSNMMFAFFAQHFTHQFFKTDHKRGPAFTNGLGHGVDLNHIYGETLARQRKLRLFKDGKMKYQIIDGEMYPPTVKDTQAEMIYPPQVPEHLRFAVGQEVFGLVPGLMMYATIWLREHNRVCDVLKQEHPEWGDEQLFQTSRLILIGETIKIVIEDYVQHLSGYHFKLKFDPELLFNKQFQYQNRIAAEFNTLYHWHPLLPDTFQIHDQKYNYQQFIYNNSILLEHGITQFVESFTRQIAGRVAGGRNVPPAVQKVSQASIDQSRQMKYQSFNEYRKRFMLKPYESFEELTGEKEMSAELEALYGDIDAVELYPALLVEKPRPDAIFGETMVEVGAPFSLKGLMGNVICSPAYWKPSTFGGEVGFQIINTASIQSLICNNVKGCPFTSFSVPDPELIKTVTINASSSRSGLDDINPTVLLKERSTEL
Method: as §1

Sequence of COX-1 (P23219 24-599): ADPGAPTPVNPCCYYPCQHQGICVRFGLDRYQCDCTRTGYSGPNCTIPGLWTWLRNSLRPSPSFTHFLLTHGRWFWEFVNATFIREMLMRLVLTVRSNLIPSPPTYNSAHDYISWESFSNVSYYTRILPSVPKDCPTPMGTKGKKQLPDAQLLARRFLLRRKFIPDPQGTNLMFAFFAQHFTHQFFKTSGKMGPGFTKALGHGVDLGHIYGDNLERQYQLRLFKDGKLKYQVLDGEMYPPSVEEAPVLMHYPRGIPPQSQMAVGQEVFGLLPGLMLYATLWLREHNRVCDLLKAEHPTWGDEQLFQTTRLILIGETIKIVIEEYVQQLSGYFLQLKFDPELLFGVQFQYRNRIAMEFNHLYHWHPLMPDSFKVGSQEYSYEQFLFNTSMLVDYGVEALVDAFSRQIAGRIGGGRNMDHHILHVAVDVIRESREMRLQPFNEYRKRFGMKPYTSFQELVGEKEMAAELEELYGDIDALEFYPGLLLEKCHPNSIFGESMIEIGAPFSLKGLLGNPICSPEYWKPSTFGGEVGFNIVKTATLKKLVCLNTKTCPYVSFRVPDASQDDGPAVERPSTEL

Compound | pIC50 [1] | pIC50 [2]
Cc1ccc(-c2c3cccccc-3cc2-c2ccc(S(C)(=O)=O)cc2)cc1 [Compound 8, 1-(4-Methylphenyl)-2-(4-methylsulfonylphenyl)azulene] | < 5.00 | 5.13
CS(=O)(=O)c1ccc(-c2cc3cccccc-3c2-c2ccccc2Cl)cc1 [Compound 2, 1-(2-Chlorophenyl)-2-(4-methylsulfonylphenyl)azulene] | < 5.00 | 5.16
Cc1ccc(-c2c3cccccc-3cc2-c2ccc(S(N)(=O)=O)cc2)cc1Cl [Compound 33, 4-[1-(3-Chloro4-methylphenyl)azulene-2-yl]phenylsulfonamide] | 5.39 | 8.59
Cc1cccc(-c2c3cccccc-3cc2-c2ccc(S(N)(=O)=O)cc2)c1 [Compound 30, 4-[1-(3-Methylphenyl)azulene-2-yl]phenylsulfonamide] | 5.37 | 6.30
CS(=O)(=O)c1ccc(-c2cc3cccccc-3c2-c2ccc(F)c(Cl)c2)cc1 [Compound 11, 1-(3-Chloro-4-fluorophenyl)-2-(4-methylsulfonylphenyl)azulene] | < 5.00 | 7.08
Cc1cccc(-c2c3cccccc-3cc2-c2ccc(S(C)(=O)=O)cc2)c1 [Compound 7, 1-(3-Methylphenyl)-2-(4-methylsulfonylphenyl)azulene] | < 5.00 | 7.32
CS(=O)(=O)c1ccc(-c2cc3cccccc-3c2-c2cccc(F)c2)cc1 [Compound 5, 1-(3-Fluorophenyl)-2-(4-methylsulfonylphenyl)azulene] | < 5.00 | < 5.00
CS(=O)(=O)c1ccc(-c2c(F)c3cccccc-3c2-c2ccccc2)cc1 [Compound 21, 1-Fluoro-2-(4-methylsulfonylphenyl)-3-phenylazulene] | < 5.00 | 5.10
COc1ccc(-c2c3cccccc-3cc2-c2ccc(S(C)(=O)=O)cc2)cc1OC [Compound 38, 1-(3,4-Dimethoxyphenyl)-2-(4-methylsulfonylphenyl)azulene] | < 5.00 | 7.19
CS(=O)(=O)c1ccc(-c2cc3cccccc-3c2-c2ccc(Cl)cc2)cc1 [Compound 4, 1-(4-Chlorophenyl)-2-(4-methylsulfonylphenyl)azulene] | < 5.00 | 7.52
NS(=O)(=O)c1ccc(-c2cc3cccccc-3c2-c2ccc(F)c(Cl)c2)cc1 [Compound 32, 4-[1-(3-Chloro-4-fluorophenyl)azulene-2-yl]phenylsulfonamide] | < 5.00 | 7.92
COc1ccc(-c2c3cccccc-3cc2-c2ccc(S(N)(=O)=O)cc2)cc1OC [Compound 39, 4-[1-(3,4-Dimethoxyphenyl)azulene-2-yl]phenylsulfonamide] | < 5.00 | 6.54
COc1cccc(-c2c3cccccc-3cc2-c2ccc(S(C)(=O)=O)cc2)c1 [Compound 9, 1-(3-Methoxyphenyl)-2-(4-methylsulfonylphenyl)azulene] | < 5.00 | 5.32
NS(=O)(=O)c1ccc(-c2cc3cccccc-3c2-c2cccc(F)c2)cc1 [Compound 29, 4-[1-(3-Fluorophenyl)azulene-2-yl]phenylsulfonamide] | 5.33 | 6.11
Cc1ccc(-c2c3cccccc-3cc2-c2ccc(S(C)(=O)=O)cc2)cc1Cl [Compound 12, 1-(3-Chloro-4-methylphenyl)-2-(4-methylsulfonylphenyl)azulene] | < 5.00 | 8.31
COc1ccc(-c2c3cccccc-3cc2-c2ccc(S(C)(=O)=O)cc2)cc1F [Compound 14, 1-(3-Fluoro-4-methoxyphenyl)-2-(4-methylsulfonylphenyl)azulene] | < 5.00 | 8.08
CS(=O)(=O)c1ccc(-c2cc3cccccc-3c2-c2cccc(Cl)c2)cc1 [Compound 3, 1-(3-Chlorophenyl)-2-(4-methylsulfonylphenyl)azulene] | < 5.00 | 8.03
COc1ccc(-c2c3cccccc-3cc2-c2ccc(S(C)(=O)=O)cc2)cc1Cl [Compound 13, 1-(3-Chloro4-methoxyphenyl)-2-(4-methylsulfonylphenyl)azulene] | < 5.00 | 7.72
COc1ccc(-c2c3cccccc-3cc2-c2ccc(S(C)(=O)=O)cc2)cc1 [Compound 10, 1-(4-Methoxyphenyl)-2-(4-methylsulfonylphenyl)azulene] | < 5.00 | 5.43
COc1cccc(-c2c3cccccc-3cc2-c2ccc(S(N)(=O)=O)cc2)c1 [Compound 31, 4-[1-(3-Methoxyphenyl)azulene-2-yl]phenylsulfonamide] | < 5.00 | 5.60
COc1ccc(-c2c3cccccc-3cc2-c2ccc(S(N)(=O)=O)cc2)cc1F [Compound 35, 4-[l-(3-Fluoro-4-methoxyphenyl)azulene-2-yl]phenylsulfonamide] | 5.17 | 7.66
CS(=O)(=O)c1ccc(-c2cc3cccccc-3c2-c2ccc(F)cc2)cc1 [Compound 6, 1-(4-Fluorophenyl)-2-(4-methylsulfonylphenyl)azulene] | < 5.00 | 5.92
NS(=O)(=O)c1ccc(-c2cc3cccccc-3c2-c2cccc(Cl)c2)cc1 [Compound 28, 4-[1-(3-Chlorophenyl)azulene-2-yl]phenylsulfonamide] | 5.12 | 5.59
NS(=O)(=O)c1ccc(-c2cc3cccccc-3c2-c2ccccc2)cc1 [Compound 27, 4-(1-Phenylazulene-2-yl)phenylsulfonamide] | < 5.00 | 8.07
COc1ccc(-c2c3cccccc-3cc2-c2ccc(S(N)(=O)=O)cc2)cc1Cl [Compound 34, 4-[1-(3-Chloro4-methoxyphenyl)azulene-2-yl]phenylsulfonamide] | 6.02 | 8.47
CS(=O)(=O)c1ccc(-c2cc3cccccc-3c2-c2ccccc2)cc1 [Compound 1, 2-(4-Methylsulfonylphenyl)-1-phenylazulene] | < 5.00 | 6.12
